Laboratory results published in US20210161131A1, “cis-p-Menthane-1,8-Di-secondary Amine Compounds as well as Their Preparation Methods and Application in Weed Control” (RESEARCH INSTITUTE OF FORESTRY NEW TECHNOLOGY, CHINESE …, priority 2019, published 2021).

Tested on: barnyard grass seeds
Experiment: Petri dish seed germination method: inhibition of root and stem growth of barnyard grass
Assay type: in vivo
Conditions: 96 hours incubation
Protocol: (§1) Step 2: Accurately weigh 1 mmol cis-p-menthane-1,8-di-Schiff base compounds and cis-p-menthane-1,8-di-secondary amine compounds respectively, dissolve each of them with 0.25 mL DMF, and add a drop of Tween 80 in each resulted solution. After being fully dissolved, each solution is transferred to a 100 mL volumetric flask respectively and then diluted to the mark with distilled water to obtain a solution with a concentration of 10 mmol/L as the mother liquor. The two-fold dilution method is used to prepare diluted solutions with a series of concentrations (the concentrations of DMF and Tween 80 in the diluted solutions are the same as those in the mother liquor).
(§2) Barnyard grass seeds are placed in a 28° C. incubator and are soaked in an appropriate amount of distilled water for 12 hours there. After the clean water is filtered out, the seeds are then placed in the 28° C. incubator for 24 hours to germinate. Spread 2 pieces of filter paper in each of several Petri dishes, and place 10 barnyard grass seeds with the same size in each dish. Repeat each treatment for three times The dishes are divided into two groups: test dishes and control dishes. Add into each test dish 10 mL of the sample solution with the corresponding concentration of the target compound, and add into each control dish the same amount of the mixture of water, DMF and Tween 80 as the blank control. Add 10 seeds to each of the dishes (both test dishes and control dishes), place them in an artificial climate incubator, and incubate them for 96 hours under a temperature of 28° C., an illumination of 5000 1×, a photoperiod of day:night=16:8 and a relative humidity of 70-80%. The experimental data is processed and analyzed with DPS software to calculate the inhibition rate (y) of cis-p-menthane-1,8-di-secondary amine compounds on the root growth or stem growth of barnyard grass seeds.
Wherein, y is the inhibition rate of root growth or stem growth (%), x0 is the root length or stem length of the control, and x1 is the root length or stem length of the sample.
as §1, with “Accurately” for “Step 2: Accurately”, “cis-p-menthane-1,8-bis-(4-chlorophenyl)Schiff” for “cis-p-menthane-1,8-di-Schiff”, “base” for “base compounds”, “cis-p-menthane-1,8-bis-(4-chlorobenzyl)amine” for “cis-p-menthane-1,8-di-secondary amine compounds”, “(5 mmol/L, 2.5 mmol/L, 1.25 mmol/L, 0.625 mmol/L, 0.3125 mmol/L and 0.1563 mmol/L; the” for “(the”
as §2, with “placed in a 30° C. incubator” for “placed in the 28° C. incubator”, “in each Petri dish,” for “in each of several Petri dishes,”, “each Petri dish, and place” for “several Petri dishes, and place”, “with the above corresponding concentration” for “with the corresponding concentration”, “with DPS software.” for “with DPS software to calculate the inhibition rate (y) of cis-p-menthane-1,8-di-secondary amine compounds on the root growth or stem growth of barnyard grass seeds.”

CC1(N=Cc2ccc(C(F)(F)F)cc2)CCC(C(C)(C)N=Cc2ccc(C(F)(F)F)cc2)CC1 (stereo not drawn) [cis-p-menthane-1,8-bis-(4-trifluoromethylbenzyl)Schiff base, reference compound]
inhibition rate on the stem growth of barnyard grass seeds (0.3125 mmol/L): 20.6%
inhibition rate on the root growth of barnyard grass seeds (0.625 mmol/L): 0.8%
inhibition rate on the stem growth of barnyard grass seeds (0.625 mmol/L): 30.9%
inhibition rate on the root growth of barnyard grass seeds (1.25 mmol/L): 17.5%
inhibition rate on the stem growth of barnyard grass seeds (1.25 mmol/L): 14.6%
inhibition rate on the root growth of barnyard grass seeds (2.5 mmol/L): 7.1%
inhibition rate on the stem growth of barnyard grass seeds (2.5 mmol/L): 19.5%
inhibition rate on the root growth of barnyard grass seeds (5 mmol/L): 48.4%
inhibition rate on the stem growth of barnyard grass seeds (5 mmol/L): 31.1%

CC1(NCc2ccc[nH]2)CCC(C(C)(C)NCc2ccc[nH]2)CC1 (stereo not drawn) [cis-p-menthane-1,8-bis(pyrrole-2-methyl)amine]
inhibition rate on the root growth of barnyard grass seeds (0.15625 mmol/L): 1.7%
inhibition rate on the stem growth of barnyard grass seeds (0.15625 mmol/L): 15.4%
inhibition rate on the root growth of barnyard grass seeds (0.3125 mmol/L): 60.5%
inhibition rate on the stem growth of barnyard grass seeds (0.3125 mmol/L): 26.5%
inhibition rate on the root growth of barnyard grass seeds (0.625 mmol/L): 87.7%
inhibition rate on the stem growth of barnyard grass seeds (0.625 mmol/L): 28.6%
inhibition rate on the root growth of barnyard grass seeds (1.25 mmol/L): 93.1%
inhibition rate on the stem growth of barnyard grass seeds (1.25 mmol/L): 48.2%
inhibition rate on the root growth of barnyard grass seeds (2.5 mmol/L): 91.9%
inhibition rate on the stem growth of barnyard grass seeds (2.5 mmol/L): 71.5%
inhibition rate on the root growth of barnyard grass seeds (5 mmol/L): 94.4%
inhibition rate on the stem growth of barnyard grass seeds (5 mmol/L): 78.3%

CC(C)(NCc1ccccn1)[C@H]1CC[C@@](C)(NCc2ccccn2)CC1 [cis-p-menthane-1,8-bis(pyridine-2-methyl)amine]
inhibition rate on the root growth of barnyard grass seeds (0.15625 mmol/L): 18.9%
inhibition rate on the stem growth of barnyard grass seeds (0.15625 mmol/L): 23.8%
inhibition rate on the root growth of barnyard grass seeds (0.3125 mmol/L): 20.5%
inhibition rate on the stem growth of barnyard grass seeds (0.3125 mmol/L): 26.4%
inhibition rate on the root growth of barnyard grass seeds (0.625 mmol/L): 33.8%
inhibition rate on the stem growth of barnyard grass seeds (0.625 mmol/L): 30.1%
inhibition rate on the root growth of barnyard grass seeds (1.25 mmol/L): 61.0%
inhibition rate on the stem growth of barnyard grass seeds (1.25 mmol/L): 46.6%
inhibition rate on the root growth of barnyard grass seeds (2.5 mmol/L): 95.8%
inhibition rate on the stem growth of barnyard grass seeds (2.5 mmol/L): 65.3%
inhibition rate on the root growth of barnyard grass seeds (5 mmol/L): 100.0%
inhibition rate on the stem growth of barnyard grass seeds (5 mmol/L): 88.0%

CC(C)(N=Cc1ccc(Br)cc1)[C@H]1CC[C@@](C)(N=Cc2ccc(Br)cc2)CC1 [cis-p-menthane-1,8-bis-(4-bromobenzyl)Schiff base, reference compound]
inhibition rate on the root growth of barnyard grass seeds (0.3125 mmol/L): −3.2%
inhibition rate on the stem growth of barnyard grass seeds (0.3125 mmol/L): 6.5%
inhibition rate on the root growth of barnyard grass seeds (0.625 mmol/L): 28.5%
inhibition rate on the stem growth of barnyard grass seeds (0.625 mmol/L): 19.6%
inhibition rate on the root growth of barnyard grass seeds (1.25 mmol/L): 46.8%
inhibition rate on the stem growth of barnyard grass seeds (1.25 mmol/L): 42.3%
inhibition rate on the root growth of barnyard grass seeds (2.5 mmol/L): 72.6%
inhibition rate on the stem growth of barnyard grass seeds (2.5 mmol/L): 39.3%
inhibition rate on the root growth of barnyard grass seeds (5 mmol/L): 69.4%
inhibition rate on the stem growth of barnyard grass seeds (5 mmol/L): 55.9%

CC1(NCc2cccs2)CCC(C(C)(C)NCc2cccs2)CC1 (stereo not drawn) [cis-p-menthane-1,8-bis(thiophen-2-methyl)amine]
inhibition rate on the root growth of barnyard grass seeds (0.15625 mmol/L): 0.8%
inhibition rate on the stem growth of barnyard grass seeds (0.15625 mmol/L): 13.3%
inhibition rate on the root growth of barnyard grass seeds (0.3125 mmol/L): 1.5%
inhibition rate on the stem growth of barnyard grass seeds (0.3125 mmol/L): 28.9%
inhibition rate on the root growth of barnyard grass seeds (0.625 mmol/L): 5.8%
inhibition rate on the stem growth of barnyard grass seeds (0.625 mmol/L): 39.2%
inhibition rate on the root growth of barnyard grass seeds (1.25 mmol/L): 50.0%
inhibition rate on the stem growth of barnyard grass seeds (1.25 mmol/L): 45.3%
inhibition rate on the root growth of barnyard grass seeds (2.5 mmol/L): 75.1%
inhibition rate on the stem growth of barnyard grass seeds (2.5 mmol/L): 51.0%
inhibition rate on the root growth of barnyard grass seeds (5 mmol/L): 86.0%
inhibition rate on the stem growth of barnyard grass seeds (5 mmol/L): 59.1%

CC1(N=Cc2ccccc2C(F)(F)F)CCC(C(C)(C)N=Cc2ccccc2C(F)(F)F)CC1 (stereo not drawn) [cis-p-menthane-1,8-bis-(2-trifluoromethylbenzyl)Schiff base, reference compound]
inhibition rate on the root growth of barnyard grass seeds (0.3125 mmol/L): 20.9%
inhibition rate on the stem growth of barnyard grass seeds (0.3125 mmol/L): 9%
inhibition rate on the root growth of barnyard grass seeds (0.625 mmol/L): 15.4%
inhibition rate on the stem growth of barnyard grass seeds (0.625 mmol/L): 13.2%
inhibition rate on the root growth of barnyard grass seeds (1.25 mmol/L): 2.7%
inhibition rate on the stem growth of barnyard grass seeds (1.25 mmol/L): 17.7%
inhibition rate on the root growth of barnyard grass seeds (2.5 mmol/L): 20.6%
inhibition rate on the stem growth of barnyard grass seeds (2.5 mmol/L): 12.1%
inhibition rate on the root growth of barnyard grass seeds (5 mmol/L): 34.8%
inhibition rate on the stem growth of barnyard grass seeds (5 mmol/L): 21.2%

CC1(N=Cc2ccc(F)cc2)CCC(C(C)(C)N=Cc2ccc(F)cc2)CC1 (stereo not drawn) [cis-p-menthane-1,8-bis-(4-fluorobenzyl)Schiff base, reference compound]
inhibition rate on the root growth of barnyard grass seeds (0.3125 mmol/L): 15.7%
inhibition rate on the stem growth of barnyard grass seeds (0.3125 mmol/L): −13.7%
inhibition rate on the root growth of barnyard grass seeds (0.625 mmol/L): 72.8%
inhibition rate on the stem growth of barnyard grass seeds (0.625 mmol/L): 2.7%
inhibition rate on the root growth of barnyard grass seeds (1.25 mmol/L): 85.7%
inhibition rate on the stem growth of barnyard grass seeds (1.25 mmol/L): 23.9%
inhibition rate on the root growth of barnyard grass seeds (2.5 mmol/L): 82.9%
inhibition rate on the stem growth of barnyard grass seeds (2.5 mmol/L): 20.1%
inhibition rate on the root growth of barnyard grass seeds (5 mmol/L): 79.7%
inhibition rate on the stem growth of barnyard grass seeds (5 mmol/L): 32.3%

CC(C)(NCc1ccccc1C(F)(F)F)[C@H]1CC[C@@](C)(NCc2ccccc2C(F)(F)F)CC1 [cis-p-menthane-1,8-bis-(2-trifluoromethylbenzyl)amine]
inhibition rate on the root growth of barnyard grass seeds (0.15625 mmol/L): 51.9%
inhibition rate on the stem growth of barnyard grass seeds (0.15625 mmol/L): 36.9%
inhibition rate on the root growth of barnyard grass seeds (0.3125 mmol/L): 57.0%
inhibition rate on the stem growth of barnyard grass seeds (0.3125 mmol/L): 43.6%
inhibition rate on the root growth of barnyard grass seeds (0.625 mmol/L): 68.0%
inhibition rate on the stem growth of barnyard grass seeds (0.625 mmol/L): 49.0%
inhibition rate on the root growth of barnyard grass seeds (1.25 mmol/L): 93. %
inhibition rate on the stem growth of barnyard grass seeds (1.25 mmol/L): 59.6%
inhibition rate on the root growth of barnyard grass seeds (2.5 mmol/L): 100%
inhibition rate on the stem growth of barnyard grass seeds (2.5 mmol/L): 87.4%
inhibition rate on the root growth of barnyard grass seeds (5 mmol/L): 100%
inhibition rate on the stem growth of barnyard grass seeds (5 mmol/L): 90.3%

CN(C)c1ccc(CNC2(C)CCC(C(C)(C)NCc3ccc(N(C)C)cc3)CC2)cc1 (stereo not drawn) [cis-p-menthane-1,8-bis-(4-dimethylaminobenzyl)amine]
inhibition rate on the root growth of barnyard grass seeds (0.15625 mmol/L): 14.4%
inhibition rate on the stem growth of barnyard grass seeds (0.15625 mmol/L): 19.1%
inhibition rate on the root growth of barnyard grass seeds (0.3125 mmol/L): 31.0%
inhibition rate on the stem growth of barnyard grass seeds (0.3125 mmol/L): 19.6%
inhibition rate on the root growth of barnyard grass seeds (0.625 mmol/L): 21.0%
inhibition rate on the stem growth of barnyard grass seeds (0.625 mmol/L): 24.9%
inhibition rate on the root growth of barnyard grass seeds (1.25 mmol/L): 48.1%
inhibition rate on the stem growth of barnyard grass seeds (1.25 mmol/L): 22.3%
inhibition rate on the root growth of barnyard grass seeds (2.5 mmol/L): 70.3%
inhibition rate on the stem growth of barnyard grass seeds (2.5 mmol/L): 34.3%
inhibition rate on the root growth of barnyard grass seeds (5 mmol/L): 89.3%
inhibition rate on the stem growth of barnyard grass seeds (5 mmol/L): 56.6%

COc1ccc(CNC2(C)CCC(C(C)(C)NCc3ccc(OC)cc3)CC2)cc1 (stereo not drawn) [cis-p-menthane-1,8-bis-(4-methoxybenzyl)amine]
inhibition rate on the root growth of barnyard grass seeds (0.15625 mmol/L): 37.8%
inhibition rate on the stem growth of barnyard grass seeds (0.15625 mmol/L): 9.9%
inhibition rate on the root growth of barnyard grass seeds (0.3125 mmol/L): 42.2%
inhibition rate on the stem growth of barnyard grass seeds (0.3125 mmol/L): 27.9%
inhibition rate on the root growth of barnyard grass seeds (0.625 mmol/L): 88.7%
inhibition rate on the stem growth of barnyard grass seeds (0.625 mmol/L): 72.5%
inhibition rate on the root growth of barnyard grass seeds (1.25 mmol/L): 95.1%
inhibition rate on the stem growth of barnyard grass seeds (1.25 mmol/L): 70.6%
inhibition rate on the root growth of barnyard grass seeds (2.5 mmol/L): 96.5%
inhibition rate on the stem growth of barnyard grass seeds (2.5 mmol/L): 84.4%
inhibition rate on the root growth of barnyard grass seeds (5 mmol/L): 100.0%
inhibition rate on the stem growth of barnyard grass seeds (5 mmol/L): 84.3%
